# Organism: Rattus norvegicus
# Experiment: DrugMatrix - Regimen: Daily Repeat
# Type: toxicity, organism-based, Sprague-Dawley
# Design: regimen Daily Repeat, gender Male, age 6-8 weeks
# Conditions: in vivo, po, route oral GAVAGE, […]; for ABSOLUTE BASOPHIL / ABSOLUTE EOSINOPHIL / ABSOLUTE LYMPHOCYTE / ABSOLUTE MONOCYTE / BASOPHIL / EOSINOPHIL / ERYTHROCYTE COUNT / HEMATOCRIT / HEMOGLOBIN / LEUKOCYTE COUNT / LYMPHOCYTE / MEAN CORPUSCULAR HEMOGLOBIN / MEAN CORPUSCULAR HEMOGLOBIN CONCENTRATION / MEAN CORPUSCULAR VOLUME / MONOCYTE / NEUTROPHIL / PLATELET COUNT: tissue Blood
# [1] = 0 mg/kg, 72 h, dose level Control, time 3 day
# [2] = 0 mg/kg, 72 h, tissue Plasma, dose level Control, time 3 day
# [3] = 0 mg/kg, 120 h, dose level Control, time 5 day
# [4] = 0 mg/kg, 120 h, tissue Plasma, dose level Control, time 5 day
# [5] = 0 mg/kg, dose level Control, time 14 day
# [6] = 0 mg/kg, tissue Plasma, dose level Control, time 14 day
# [7] = 40 mg/kg, 72 h, dose level Low, time 3 day
# [8] = 40 mg/kg, 72 h, tissue Plasma, dose level Low, time 3 day
compound,measurement,setting,value
C=CCN [ALLYLAMINE],ABSOLUTE BASOPHIL,[1],50 cells/µL
same,ABSOLUTE EOSINOPHIL,[1],43.3 cells/µL
same,ABSOLUTE LYMPHOCYTE,[1],9670 cells/µL
same,ABSOLUTE MONOCYTE,[1],210 cells/µL
same,BASOPHIL,[1],0.4%
same,EOSINOPHIL,[1],0.37%
same,ERYTHROCYTE COUNT,[1],6.82 x10E6/uL
same,HEMATOCRIT,[1],46.77%
same,HEMOGLOBIN,[1],14.53 G/DL
same,LEUKOCYTE COUNT,[1],11.77 x10E3/uL
same,LYMPHOCYTE,[1],82.1%
same,MEAN CORPUSCULAR HEMOGLOBIN,[1],21.33 pg
same,MEAN CORPUSCULAR HEMOGLOBIN CONCENTRATION,[1],31.13 G/DL
same,MEAN CORPUSCULAR VOLUME,[1],68.57 fL
same,MONOCYTE,[1],1.8%
same,NEUTROPHIL,[1],14.83%
same,PLATELET COUNT,[1],1303.33 x10E3/uL
same,ALANINE AMINOTRANSFERASE,[2],46.67 u/L
same,ALBUMIN,[2],4.17 G/DL
same,ALKALINE PHOSPHATASE,[2],530 u/L
same,ASPARTATE AMINOTRANSFERASE,[2],81.33 u/L
same,BLOOD UREA NITROGEN,[2],17.67 mg/dL
same,CARBON DIOXIDE,[2],41.67 mmol/L
same,CHLORIDE,[2],102 MEQ/L
same,CHOLESTEROL,[2],70.33 mg/dL
same,CREATINE PHOSPHOKINASE,[2],372.67 u/L
same,CREATININE,[2],0.5 mg/dL
same,GLUCOSE,[2],184 mg/dL
same,LIPASE,[2],13.33 u/L
same,PHOSPHORUS,[2],10.2 mg/dL
same,POTASSIUM,[2],6.13 MEQ/L
same,SODIUM,[2],145 MEQ/L
same,TOTAL BILIRUBIN,[2],0.43 mg/dL
same,TOTAL PROTEIN,[2],6.7 G/DL
same,URIC ACID,[2],0.83 mg/dL
same,ABSOLUTE BASOPHIL,[3],33.3 cells/µL
same,ABSOLUTE EOSINOPHIL,[3],56.7 cells/µL
same,ABSOLUTE LYMPHOCYTE,[3],9220 cells/µL
same,ABSOLUTE MONOCYTE,[3],230 cells/µL
same,BASOPHIL,[3],0.3%
same,EOSINOPHIL,[3],0.5%
same,ERYTHROCYTE COUNT,[3],6.62 x10E6/uL
same,HEMATOCRIT,[3],46.43%
same,HEMOGLOBIN,[3],14.3 G/DL
same,LEUKOCYTE COUNT,[3],10.96 x10E3/uL
same,LYMPHOCYTE,[3],83.83%
same,MEAN CORPUSCULAR HEMOGLOBIN,[3],21.57 pg
same,MEAN CORPUSCULAR HEMOGLOBIN CONCENTRATION,[3],30.77 G/DL
same,MEAN CORPUSCULAR VOLUME,[3],70.13 fL
same,MONOCYTE,[3],2.1%
same,NEUTROPHIL,[3],12.53%
same,PLATELET COUNT,[3],1056.67 x10E3/uL
same,ALANINE AMINOTRANSFERASE,[4],41.33 u/L
same,ALBUMIN,[4],4.07 G/DL
same,ALKALINE PHOSPHATASE,[4],603.33 u/L
same,ASPARTATE AMINOTRANSFERASE,[4],80 u/L
same,BLOOD UREA NITROGEN,[4],14.67 mg/dL
same,CARBON DIOXIDE,[4],43 mmol/L
same,CHLORIDE,[4],104 MEQ/L
same,CHOLESTEROL,[4],88.33 mg/dL
same,CREATINE PHOSPHOKINASE,[4],391.67 u/L
same,CREATININE,[4],0.47 mg/dL
same,GLUCOSE,[4],156 mg/dL
same,LIPASE,[4],10.67 u/L
same,PHOSPHORUS,[4],9.03 mg/dL
same,POTASSIUM,[4],6.1 MEQ/L
same,SODIUM,[4],145.67 MEQ/L
same,TOTAL BILIRUBIN,[4],0.37 mg/dL
same,TOTAL PROTEIN,[4],6.53 G/DL
same,URIC ACID,[4],0.5 mg/dL
same,ABSOLUTE BASOPHIL,[5],73.3 cells/µL
same,ABSOLUTE EOSINOPHIL,[5],60 cells/µL
same,ABSOLUTE LYMPHOCYTE,[5],12200 cells/µL
same,ABSOLUTE MONOCYTE,[5],250 cells/µL
same,BASOPHIL,[5],0.5%
same,EOSINOPHIL,[5],0.37%
same,ERYTHROCYTE COUNT,[5],7.33 x10E6/uL
same,HEMATOCRIT,[5],44.3%
same,HEMOGLOBIN,[5],14.77 G/DL
same,LEUKOCYTE COUNT,[5],14.86 x10E3/uL
same,LYMPHOCYTE,[5],81.87%
same,MEAN CORPUSCULAR HEMOGLOBIN,[5],20.2 pg
same,MEAN CORPUSCULAR HEMOGLOBIN CONCENTRATION,[5],33.33 G/DL
same,MEAN CORPUSCULAR VOLUME,[5],60.57 fL
same,MONOCYTE,[5],1.63%
same,NEUTROPHIL,[5],14.93%
same,PLATELET COUNT,[5],1101.67 x10E3/uL
same,ALANINE AMINOTRANSFERASE,[6],31.67 u/L
same,ALBUMIN,[6],3.83 G/DL
same,ALKALINE PHOSPHATASE,[6],430.67 u/L
same,ASPARTATE AMINOTRANSFERASE,[6],87 u/L
same,BLOOD UREA NITROGEN,[6],14.33 mg/dL
same,CARBON DIOXIDE,[6],39 mmol/L
same,CHLORIDE,[6],104 MEQ/L
same,CHOLESTEROL,[6],66 mg/dL
same,CREATINE PHOSPHOKINASE,[6],441.67 u/L
same,CREATININE,[6],0.7 mg/dL
same,GLUCOSE,[6],125.67 mg/dL
same,LACTATE DEHYDROGENASE,[6],397.67 u/L
same,LIPASE,[6],12.33 u/L
same,PHOSPHORUS,[6],9.87 mg/dL
same,POTASSIUM,[6],5.93 MEQ/L
same,SODIUM,[6],145 MEQ/L
same,TOTAL BILIRUBIN,[6],0.37 mg/dL
same,TOTAL PROTEIN,[6],6.27 G/DL
same,URIC ACID,[6],0.67 mg/dL
same,ABSOLUTE BASOPHIL,[7],40 cells/µL
same,ABSOLUTE EOSINOPHIL,[7],60 cells/µL
same,ABSOLUTE LYMPHOCYTE,[7],9180 cells/µL
same,ABSOLUTE MONOCYTE,[7],300 cells/µL
same,BASOPHIL,[7],0.33%
same,EOSINOPHIL,[7],0.53%
same,ERYTHROCYTE COUNT,[7],7.09 x10E6/uL
same,HEMATOCRIT,[7],45.93%
same,HEMOGLOBIN,[7],14.27 G/DL
same,LEUKOCYTE COUNT,[7],11.66 x10E3/uL
same,LYMPHOCYTE,[7],78.7%
same,MEAN CORPUSCULAR HEMOGLOBIN,[7],20.07 pg
same,MEAN CORPUSCULAR HEMOGLOBIN CONCENTRATION,[7],31 G/DL
same,MEAN CORPUSCULAR VOLUME,[7],64.77 fL
same,MONOCYTE,[7],2.47%
same,NEUTROPHIL,[7],17.23%
same,PLATELET COUNT,[7],1151.67 x10E3/uL
same,ALANINE AMINOTRANSFERASE,[8],38 u/L
same,ALBUMIN,[8],3.8 G/DL
same,ALKALINE PHOSPHATASE,[8],546.67 u/L
same,ASPARTATE AMINOTRANSFERASE,[8],81.67 u/L
same,BLOOD UREA NITROGEN,[8],16.67 mg/dL
same,CARBON DIOXIDE,[8],38.67 mmol/L
same,CHLORIDE,[8],105.67 MEQ/L
same,CHOLESTEROL,[8],70.67 mg/dL
same,CREATINE PHOSPHOKINASE,[8],634.67 u/L
same,CREATININE,[8],0.6 mg/dL
same,GLUCOSE,[8],204.33 mg/dL
same,LIPASE,[8],283.33 u/L
same,PHOSPHORUS,[8],9.93 mg/dL
same,POTASSIUM,[8],6.43 MEQ/L
same,SODIUM,[8],146 MEQ/L

# From ChEMBL document CHEMBL3885881, “DrugMatrix”
